We go through twelve molecules from US11833160B2, “Ursodeoxycholic acid derivatives as HDAC inhibitors for the treatment of polycystic diseases” (UNIVERSIDAD DEL PAIS VASCO/EUSKAL HERRIKO UNIBERTSITATEA, priority 2017, dated 2023).

The melting point is the temperature of the solid-liquid transition. By IC50 is commonly meant the concentration that gives 50% inhibition.

The target of one data set is T1, human HDAC5 (Homo sapiens, UniProt Q9UQL6).
T1 construct: GST (N); purchased BioMol, Hamburg, Germany; host or cells: baculovirus / Sf9 cells
Briefly: HDAC5 enzymatic activity assay (fluorogenic peptide). It is filed as biochemical. The following applies: 10-dose, 3-fold serial dilution, triplicate. As to the method:
(§1) Peptide substrates: all HDAC assays were performed using acetylated peptide substrates labeled with 7-amino-4-methylcoumarin (AMC): • Substrate for isoforms HDAC1, 2, 3, 6, 10, 11, and HeLa nuclear extract assays: acetylated fluorogenic peptide from p53 residues 379-382 (RHKKAc). • Substrate for isoforms HDAC4, 5, 7, 9: fluorogenic Boc-L-Lys (s-trifluoroacetyl)-AMC. • Substrate for HDAC8 assays: acetylated fluorogenic peptide from p53 residues 379-382 (RHKAcKAc).
50 μl of peptide substrate (see “peptide substrates” section above) and an optimal concentration of the corresponding enzyme (see “enzymes” section above) in the assay buffer at a final DMSO concentration of 1% were incubated in the presence of gradient concentrations of inhibitors (10-dose IC50 mode with 3-fold serial dilution) at 30° C. for 2 hours. The reactions were carried out in a 96-well microplate for fluorometry in a 50 μl reaction volume. After the deacetylation reaction, Fluor-de-Lys-Developer (BioMol Cat. #KI-105) was added to each well to digest the deacetylated substrate, thereby producing the fluorescent signal. The reaction was carried out for 45 minutes at 30° C. with 5% CO2; the fluorescent signal was then measured using an excitation wavelength of 360 nm and an emission wavelength of 460 nm in a microplate-reading fluorometer (GeminiXS, Molecular Devices, Sunnyvale, CA). […]

A further data set has as its target T2, human HDAC7 (Homo sapiens, UniProt Q8WUI4).
T2 construct: amino acids 518 end with GST N-terminal tag, MW=78 kDa; GST (N); purchased BioMol, Hamburg, Germany; host or cells: baculovirus expression system
T2 sequence (Q8WUI4 479-952 limits assumed): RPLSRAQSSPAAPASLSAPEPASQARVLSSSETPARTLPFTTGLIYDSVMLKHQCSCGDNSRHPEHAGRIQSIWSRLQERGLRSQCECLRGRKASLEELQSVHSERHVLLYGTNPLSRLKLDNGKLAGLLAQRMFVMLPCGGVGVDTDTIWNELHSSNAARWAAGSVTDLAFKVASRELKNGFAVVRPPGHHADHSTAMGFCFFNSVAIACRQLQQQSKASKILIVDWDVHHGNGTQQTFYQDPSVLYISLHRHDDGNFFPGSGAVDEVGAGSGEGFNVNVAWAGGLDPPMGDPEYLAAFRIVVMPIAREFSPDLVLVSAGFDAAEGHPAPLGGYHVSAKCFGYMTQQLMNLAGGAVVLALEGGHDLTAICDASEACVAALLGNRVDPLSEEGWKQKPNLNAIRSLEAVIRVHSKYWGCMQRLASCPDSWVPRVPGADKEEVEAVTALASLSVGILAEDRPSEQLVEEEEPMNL
In words: HDAC7 enzymatic activity assay (fluorogenic peptide). The following applies: 10-dose, 3-fold serial dilution, triplicate. In kind it is biochemical. How it is done:
as §1
(§2) 50 μl of peptide substrate (see “peptide substrates” section above) and an optimal concentration of the corresponding enzyme (see “enzymes” section above) in the assay buffer at a final DMSO concentration of 1% were incubated in the presence of gradient concentrations of inhibitors (10-dose IC50 mode with 3-fold serial dilution) at 30° C. for 2 hours. The reactions were carried out in a 96-well microplate for fluorometry in a 50 μl reaction volume. After the deacetylation reaction, Fluor-de-Lys-Developer (BioMol Cat. #KI-105) was added to each well to digest the deacetylated substrate, thereby producing the fluorescent signal. The reaction was carried out for 45 minutes at 30° C. with 5% CO2; the fluorescent signal was then measured using an excitation wavelength of 360 nm and an emission wavelength of 460 nm in a microplate-reading fluorometer (GeminiXS, Molecular Devices, Sunnyvale, CA). A curve of deacetylated standard (Biomol, Cat. #KI-142; made from 100 μM with 1:2 dilution and 10 doses, 6 μl) allowed the conversion of the fluorescent signal into micromoles of deacetylated product. All experiments were performed in triplicate. The IC50s were calculated by fitting the experimental data to dose-response curve. DMSO was used as negative control; Trichostatin A (Biomol Cat. #GR-309) was used as positive control inhibitor.
(§3) Enzymatic activity assays were carried out in 11 HDAC enzymes, including HDAC6.

A further data set deals with T3, human HDAC8 (Homo sapiens, UniProt Q9BY41).
T3 construct: purchased BioMol SE-145; host or cells: E. coli
T3 sequence (Q9BY41 1-377): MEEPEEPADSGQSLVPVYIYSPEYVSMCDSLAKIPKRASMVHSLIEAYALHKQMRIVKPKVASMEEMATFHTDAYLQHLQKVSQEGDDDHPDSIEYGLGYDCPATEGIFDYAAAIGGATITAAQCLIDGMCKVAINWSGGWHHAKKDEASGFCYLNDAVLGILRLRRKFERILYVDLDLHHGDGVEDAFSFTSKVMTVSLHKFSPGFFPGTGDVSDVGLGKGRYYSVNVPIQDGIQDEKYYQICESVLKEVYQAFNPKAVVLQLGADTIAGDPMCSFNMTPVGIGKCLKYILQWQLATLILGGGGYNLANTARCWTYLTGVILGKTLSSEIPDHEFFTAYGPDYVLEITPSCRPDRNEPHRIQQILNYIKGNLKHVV
Briefly: HDAC8 enzymatic activity assay (fluorogenic peptide). The following applies: 10-dose, 3-fold serial dilution, triplicate. In kind it is biochemical. How it is done:
as §1, §2, §3

The next data set concerns the target T4, human HDAC6 (Homo sapiens, UniProt Q9UBN7).
T4 construct: GST (N); purchased BioMol SE-508; host or cells: baculovirus / Sf9 cells
T4 sequence (Q9UBN7 1-1215): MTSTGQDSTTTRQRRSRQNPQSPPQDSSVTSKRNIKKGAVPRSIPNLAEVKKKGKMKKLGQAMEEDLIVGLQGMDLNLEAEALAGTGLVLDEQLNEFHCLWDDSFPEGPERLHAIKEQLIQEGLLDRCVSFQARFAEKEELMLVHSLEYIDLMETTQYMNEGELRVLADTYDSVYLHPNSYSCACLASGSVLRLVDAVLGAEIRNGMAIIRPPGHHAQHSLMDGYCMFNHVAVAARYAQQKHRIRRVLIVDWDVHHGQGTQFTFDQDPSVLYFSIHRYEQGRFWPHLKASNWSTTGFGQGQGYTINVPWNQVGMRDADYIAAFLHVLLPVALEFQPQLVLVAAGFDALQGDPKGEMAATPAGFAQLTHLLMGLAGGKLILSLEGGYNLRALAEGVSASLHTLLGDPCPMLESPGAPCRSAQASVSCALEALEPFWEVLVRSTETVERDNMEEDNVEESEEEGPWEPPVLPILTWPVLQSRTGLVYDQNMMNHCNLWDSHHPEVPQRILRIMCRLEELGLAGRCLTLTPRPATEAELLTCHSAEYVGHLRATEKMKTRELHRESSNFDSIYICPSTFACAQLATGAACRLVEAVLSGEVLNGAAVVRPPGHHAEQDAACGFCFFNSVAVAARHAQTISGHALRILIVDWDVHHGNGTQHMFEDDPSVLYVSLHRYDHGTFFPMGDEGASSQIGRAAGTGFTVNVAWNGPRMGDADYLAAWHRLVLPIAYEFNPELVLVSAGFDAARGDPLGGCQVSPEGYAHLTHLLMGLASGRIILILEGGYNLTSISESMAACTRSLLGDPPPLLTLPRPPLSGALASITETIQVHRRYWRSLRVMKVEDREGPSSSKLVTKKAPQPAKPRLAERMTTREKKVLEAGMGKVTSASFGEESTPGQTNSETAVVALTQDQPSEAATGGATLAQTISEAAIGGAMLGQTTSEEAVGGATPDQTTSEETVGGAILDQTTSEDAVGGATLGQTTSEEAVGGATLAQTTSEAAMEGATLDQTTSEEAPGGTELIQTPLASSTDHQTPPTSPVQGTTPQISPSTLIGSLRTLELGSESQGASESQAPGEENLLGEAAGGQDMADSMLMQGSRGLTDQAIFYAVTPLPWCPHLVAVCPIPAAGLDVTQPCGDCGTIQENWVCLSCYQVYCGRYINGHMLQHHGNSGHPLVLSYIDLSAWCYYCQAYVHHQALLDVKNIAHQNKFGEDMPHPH
Briefly: HDAC6 enzymatic activity assay (fluorogenic peptide). It is filed as biochemical. The following applies: for IC50: 10-dose, 3-fold serial dilution, triplicate; for HDAC6 selectivity proportion: matches IC50 HDAC1 / IC50 HDAC6. How it is done: as §1, §2, §3

The subject of another data set is HDAC enzymes. Briefly: Enzymatic activity assays in 11 HDAC enzymes (statements on the panel). In kind it is biochemical, human. The following applies: for inhibitory capacity with respect to the rest of the HDAC enzymes: HDAC enzymes other than HDAC6. As to the method:
as §1, §2, §3

The target of another data set is T5, human HDAC1 (Homo sapiens, UniProt Q13547).
T5 construct: GST (C); purchased BioMol SE-456; host or cells: baculovirus / Sf9 cells
Briefly: HDAC1 enzymatic activity assay (fluorogenic peptide). It is filed as biochemical. The following applies: for IC50: 10-dose, 3-fold serial dilution, triplicate. How it is done:
as §1, §2, §3

The next data set addresses T6, human HDAC2 (Homo sapiens, UniProt Q92769).
T6 construct: His (C); purchased BioMol SE-500; host or cells: baculovirus / Sf9 cells
In words: HDAC2 enzymatic activity assay (fluorogenic peptide). In kind it is biochemical. To be noted: 10-dose, 3-fold serial dilution, triplicate. How it is done: as §1, §2, §3

T5 sequence (Q13547 whole entry): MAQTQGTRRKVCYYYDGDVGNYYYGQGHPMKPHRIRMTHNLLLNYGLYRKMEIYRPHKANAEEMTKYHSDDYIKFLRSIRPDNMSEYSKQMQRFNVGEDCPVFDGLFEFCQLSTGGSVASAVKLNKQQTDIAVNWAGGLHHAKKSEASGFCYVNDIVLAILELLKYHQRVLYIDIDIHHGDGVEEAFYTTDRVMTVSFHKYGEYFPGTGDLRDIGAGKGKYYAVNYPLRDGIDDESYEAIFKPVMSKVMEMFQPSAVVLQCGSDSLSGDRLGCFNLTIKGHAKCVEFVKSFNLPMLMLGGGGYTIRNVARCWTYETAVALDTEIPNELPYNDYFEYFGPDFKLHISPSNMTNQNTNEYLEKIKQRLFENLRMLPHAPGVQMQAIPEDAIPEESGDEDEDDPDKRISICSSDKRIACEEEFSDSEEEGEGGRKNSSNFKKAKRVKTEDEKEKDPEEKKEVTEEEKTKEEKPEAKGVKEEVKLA
T6 sequence (Q92769 whole entry): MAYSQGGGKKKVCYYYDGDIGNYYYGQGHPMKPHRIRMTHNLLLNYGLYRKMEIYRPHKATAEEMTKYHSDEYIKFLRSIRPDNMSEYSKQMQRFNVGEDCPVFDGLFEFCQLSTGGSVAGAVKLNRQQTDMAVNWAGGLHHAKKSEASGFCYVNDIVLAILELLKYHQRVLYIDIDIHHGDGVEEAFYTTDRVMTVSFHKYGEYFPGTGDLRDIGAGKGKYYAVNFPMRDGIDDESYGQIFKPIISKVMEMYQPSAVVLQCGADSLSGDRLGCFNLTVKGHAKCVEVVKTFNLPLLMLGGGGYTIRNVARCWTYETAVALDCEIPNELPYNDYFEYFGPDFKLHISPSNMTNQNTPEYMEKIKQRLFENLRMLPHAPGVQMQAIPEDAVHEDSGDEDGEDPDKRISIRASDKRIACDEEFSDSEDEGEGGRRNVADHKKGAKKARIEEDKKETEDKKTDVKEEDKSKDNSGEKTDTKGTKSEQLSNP
T1 sequence (Q9UQL6 1-1123 isoform Q9UQL6-3): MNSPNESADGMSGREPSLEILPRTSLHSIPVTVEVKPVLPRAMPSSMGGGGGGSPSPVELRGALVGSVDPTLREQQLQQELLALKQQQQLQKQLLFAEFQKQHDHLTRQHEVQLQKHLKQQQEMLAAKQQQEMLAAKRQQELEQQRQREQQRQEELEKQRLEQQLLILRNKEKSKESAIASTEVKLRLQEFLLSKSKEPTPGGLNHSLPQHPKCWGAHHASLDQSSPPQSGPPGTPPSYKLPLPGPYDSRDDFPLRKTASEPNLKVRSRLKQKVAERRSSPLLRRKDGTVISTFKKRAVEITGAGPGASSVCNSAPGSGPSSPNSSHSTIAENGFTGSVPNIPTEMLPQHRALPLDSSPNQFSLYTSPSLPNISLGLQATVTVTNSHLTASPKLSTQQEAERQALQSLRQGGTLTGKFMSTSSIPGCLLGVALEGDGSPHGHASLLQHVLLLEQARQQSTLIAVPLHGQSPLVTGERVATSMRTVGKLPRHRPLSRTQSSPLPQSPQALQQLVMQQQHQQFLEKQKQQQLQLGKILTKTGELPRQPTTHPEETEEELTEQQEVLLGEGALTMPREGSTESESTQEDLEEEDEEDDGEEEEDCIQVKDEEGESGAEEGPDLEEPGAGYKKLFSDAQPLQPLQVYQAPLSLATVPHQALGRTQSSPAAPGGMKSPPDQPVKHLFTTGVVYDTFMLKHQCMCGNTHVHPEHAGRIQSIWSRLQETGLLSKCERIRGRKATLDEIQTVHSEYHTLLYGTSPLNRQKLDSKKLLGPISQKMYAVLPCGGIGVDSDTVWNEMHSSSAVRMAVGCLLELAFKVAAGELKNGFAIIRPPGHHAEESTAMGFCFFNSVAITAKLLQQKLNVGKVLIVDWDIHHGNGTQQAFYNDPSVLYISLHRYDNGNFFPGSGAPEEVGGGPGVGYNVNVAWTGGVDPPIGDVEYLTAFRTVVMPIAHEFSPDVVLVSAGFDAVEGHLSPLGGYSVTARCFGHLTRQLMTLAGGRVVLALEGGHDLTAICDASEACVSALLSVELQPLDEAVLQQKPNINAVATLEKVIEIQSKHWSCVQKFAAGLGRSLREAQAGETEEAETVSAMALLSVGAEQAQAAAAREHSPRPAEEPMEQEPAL

The molecule `C[C@H](NC(=O)CC[C@@H](C)[C@H]1CC[C@H]2[C@@H]3[C@@H](O)C[C@@H]4C[C@H](O)CC[C@]4(C)[C@H]3CC[C@]12C)C(=O)NO` yielded a melting point of 170 to 172 °C.
In turn, `C[C@H](CCC(=O)NCCC(=O)NO)[C@H]1CC[C@H]2[C@@H]3[C@@H](O)C[C@@H]4C[C@H](O)CC[C@]4(C)[C@H]3CC[C@]12C` showed a melting point of 180 to 182 °C.
`C[C@H](CCC(=O)NCCCC(=O)NO)[C@H]1CC[C@H]2[C@@H]3[C@@H](O)C[C@@H]4C[C@H](O)CC[C@]4(C)[C@H]3CC[C@]12C` came in with a melting point of 165 to 167 °C.
On to `C[C@H](CCC(=O)NCc1ccc(C(=O)NO)o1)[C@H]1CC[C@H]2[C@@H]3[C@@H](O)C[C@@H]4C[C@H](O)CC[C@]4(C)[C@H]3CC[C@]12C`, for which the melting point was in the range of 149 to 151 °C.
In turn, `C[C@H](CCC(=O)NCc1ccc(C(=O)Nc2cc(-c3ccccc3)ccc2N)cc1)[C@H]1CC[C@H]2[C@@H]3[C@@H](O)C[C@@H]4C[C@H](O)CC[C@]4(C)[C@H]3CC[C@]12C` returned a melting point of 163 to 165 °C.
The molecule `C[C@H](CCC(=O)NCCS)[C@H]1CC[C@H]2[C@@H]3[C@@H](O)C[C@@H]4C[C@H](O)CC[C@]4(C)[C@H]3CC[C@]12C` displayed a melting point of 116 to 117 °C.
On to `C[C@H](CCC(=O)Nc1ccccc1S)[C@H]1CC[C@H]2[C@@H]3[C@@H](O)C[C@@H]4C[C@H](O)CC[C@]4(C)[C@H]3CC[C@]12C`, for which the melting point lay in the range of 157 to 158 °C.
For `NCc1ccc(C(=O)NO)cc1` [4-(aminomethyl)-N-hydroxybenzamide, reference compound], the IC50 is 435 µM against human HDAC5, 14.7 µM against human HDAC7 and 13.6 µM on human HDAC8.
Molecule `C[C@H](CCC(=O)NCCCCCC(=O)NO)[C@H]1CC[C@H]2[C@@H]3[C@@H](O)C[C@@H]4C[C@H](O)CC[C@]4(C)[C@H]3CC[C@]12C` [If, 6-((R)-4-((3R,5S,7S,8R,9S,10S,13R,14S,17R)-3,7-dihydroxy-10,13-dimethylhexadecahydro-1H-cyclopenta[a]phenanthren-17-yl)pentanamide)-N-hydroxyhexanamide] displayed a melting point of 125 to 127 °C. In addition, at human HDAC6, the “selectivity and inhibitory capacity with respect to HDAC6 enzyme” value is listed as “nanomolar range”; the concentration for half-maximal inhibition (IC50) was determined as 0.0821 µM; the HDAC6 selectivity proportion is recorded as 31. Further, the “inhibitory capacity with respect to the rest of the HDAC enzymes” value in the data set on HDAC enzymes is “micromolar range”. On human HDAC1, this molecule came in with an IC50 of 2.57 µM.
`C[C@H](CCC(=O)NCc1ccc(C(=O)NCc2ccc(C(=O)NO)cc2)cc1)[C@H]1CC[C@H]2[C@@H]3[C@@H](O)C[C@@H]4C[C@H](O)CC[C@]4(C)[C@H]3CC[C@]12C` [Ig, 4-(((R)-4-((3R,5S,7S,8R,9S,10S,13R,14S,17R)-3,7-dihydroxy-10,13-dimethylhexadecanohydro-1H-cyclopenta[a]phenanthren-17-yl)pentanamido)methyl)-N-(4-(hydroxycarbamoyl)benzyl)benzamide] displayed a melting point of 187 to 189 °C. For the same molecule, at human HDAC6, the “selectivity and inhibitory capacity with respect to HDAC6 enzyme” value is on record as “nanomolar range”; the midpoint of inhibition, the IC50, lay at 0.00426 µM; the HDAC6 selectivity proportion is 3574. Besides, the “inhibitory capacity with respect to the rest of the HDAC enzymes” value in the data set on HDAC enzymes was “micromolar range”. Also, the IC50 at human HDAC1 is 15.2 µM.
Molecule `C[C@H](CCC(=O)NCc1ccc(C(=O)Nc2ccccc2N)cc1)[C@H]1CC[C@H]2[C@@H]3[C@@H](O)C[C@@H]4C[C@H](O)CC[C@]4(C)[C@H]3CC[C@]12C` [Ii, N-(2-aminophenyl)-4-(((R)-4-((3R,5S,7S,8R,9S,10S,13R,14S,17R)-3,7-dihydroxy-10,13-dimethylhexadecahydro-1H-cyclopenta[a]phenanthren-17-yl)pentanamide)methyl)benzamide] came in with a melting point of 168 to 170 °C. Further, the IC50 at human HDAC6 amounted to 8.08 µM. Moreover, on human HDAC2, it took 0.516 µM to reach half-maximal inhibition (IC50). On human HDAC1, half-maximal inhibition (IC50) was put at 0.14 µM. The same molecule gave an HDAC1 selectivity proportion on human HDAC1 (matches IC50 HDAC6 / IC50 HDAC1) of 58.
In the case of `C[C@H](CCC(=O)O)[C@H]1CC[C@H]2[C@@H]3[C@@H](O)C[C@@H]4C[C@H](O)CC[C@]4(C)[C@H]3CC[C@]12C` [UDCA, ursodeoxycholic acid], the “inhibitory activity on any HDAC” value in the data set on HDAC enzymes (in the assayed concentration range) was “no inhibitory activity whatsoever”.
